{
  "source": "paper PMC4412765",
  "about": "(Chemical biology & drug design, 2014)",
  "origin": "cited, not measured here",
  "test_system": "S. aureus",
  "details": "cited from earlier work",
  "data": [
    {"smiles": "C(=C\\c1cc2ccc(C3=NCCN3)cc2[nH]1)/c1cc2ccc(C3=NCCN3)cc2[nH]1", "note": "[BPH-1417]", "values": [
      {"measurement": "in vitro activity against S. aureus", "value": "potent"}
    ]}
  ]
}
